Tests used:
[1] = target: D1-like dopamine receptors (Sus scrofa, UniProt P50130); type: binding; settings: porcine striatum; for Fold D1-like Selectivity: ratio of D2-like Ki to D1-like Ki
[2] = target: D2-like dopamine receptors (Sus scrofa, UniProt A0ACM8QMZ9); settings: porcine striatal binding, D1-like vs D2-like
[3] = pKa of synthetic acids, used for separation by titration; type: physicochemical

Sequence of D1-like dopamine receptors (P50130 whole entry): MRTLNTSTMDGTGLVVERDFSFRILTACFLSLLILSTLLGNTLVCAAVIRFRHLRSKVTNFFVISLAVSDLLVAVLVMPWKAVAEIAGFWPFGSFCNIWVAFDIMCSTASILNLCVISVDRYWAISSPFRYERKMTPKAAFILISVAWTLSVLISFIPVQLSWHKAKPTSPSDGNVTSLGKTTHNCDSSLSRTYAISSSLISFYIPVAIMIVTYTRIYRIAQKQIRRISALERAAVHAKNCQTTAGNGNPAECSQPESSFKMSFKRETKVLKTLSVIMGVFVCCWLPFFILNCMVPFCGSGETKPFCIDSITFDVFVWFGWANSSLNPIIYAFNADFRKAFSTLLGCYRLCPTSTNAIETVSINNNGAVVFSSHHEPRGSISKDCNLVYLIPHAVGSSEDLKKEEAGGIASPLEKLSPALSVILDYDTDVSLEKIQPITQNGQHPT
Sequence of D2-like dopamine receptors (A0ACM8QMZ9 1-443): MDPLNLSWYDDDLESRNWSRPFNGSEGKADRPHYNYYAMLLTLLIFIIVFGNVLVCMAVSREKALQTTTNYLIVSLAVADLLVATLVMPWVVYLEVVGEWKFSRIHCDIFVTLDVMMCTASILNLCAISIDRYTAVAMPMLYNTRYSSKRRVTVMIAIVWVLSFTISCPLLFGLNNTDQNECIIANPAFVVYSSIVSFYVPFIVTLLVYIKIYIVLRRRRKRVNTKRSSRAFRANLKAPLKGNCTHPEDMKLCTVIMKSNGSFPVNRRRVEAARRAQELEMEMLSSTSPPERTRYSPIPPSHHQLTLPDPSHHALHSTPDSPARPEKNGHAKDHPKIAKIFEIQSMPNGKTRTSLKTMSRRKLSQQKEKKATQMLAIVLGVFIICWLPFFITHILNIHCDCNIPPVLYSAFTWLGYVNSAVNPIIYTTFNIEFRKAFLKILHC

| Fold D1-like Selectivity [1] | SMILES | further results |
| --- | --- | --- |
| 480 fold | NC[C@@H]1O[C@H](C23CC4CC(CC(C4)C2)C3)Cc2c1ccc(O)c2O [1c, reference compound] | – |
| 92 fold | NC[C@@H]1O[C@H](c2ccccc2)Cc2c1ccc(O)c2O [1d, reference compound] | – |
| – | Cl.NCC1CCOc2c1ccc(O)c2O (stereo not drawn) [2a, 7,8-Dihydroxy-4-aminomethylchroman hydrochloride] | Receptor subtype selectivity [2]: selectivity for D2-like receptors |
| – | COc1cccc(C2OC(=O)CC2C(=O)O)c1OC (stereo not drawn) [compound 18, 2-(2,3-Dimethoxyphenyl)-5-oxo-tetrahydrofuran-3-carboxylic acid] | pKa [3]: ~3.6 |

| SMILES | Fold D1-like Selectivity [1] | further results |
| --- | --- | --- |
| Br.NC[C@H]1C[C@@H](C23CC4CC(CC(C4)C2)C3)Cc2c1ccc(O)c2O (relative stereo) [3c, Cis-5-(aminomethyl)-7-adamantyl-5,6,7,8-tetrahydronaphthalene-1,2-diol hydrobromide] | 55 fold | Fold higher binding affinity at D1-like receptors compared to 2c ([1]; relative to 2c): ~20 fold |

From paper PMC3515654 (ChemMedChem, 2011)
